Measured values: the supplement of paper PMC10307832

Experiments:
Assay in all cases: relative viability (nuclei count vs DMSO), 5 days (fraction); higher = more cells survive
[1] = compound: CN1CCC(CNc2ccc3ncc(-c4cccc(OC(F)(F)F)c4)n3n2)CC1 [SGI-1776] + CC(=O)Nc1cccc(-n2c(=O)n(C3CC3)c(=O)c3c(Nc4ccc(I)cc4F)n(C)c(=O)c(C)c32)c1 [Trametinib] (partner 0.02 µM)
Method in brief: (§1)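 Relative viability is defined as nuclei in treated wells over nuclei in vehicle wells. Duplicate plates were run and medians reported. Lung cancer cell lines in 1536-well plates were dosed by pin tool one day after seeding, with one drug or with a fixed anchor-drug dose plus five library-drug doses (not always all listed) in √10 steps, and nuclei were counted after 5 days.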

[2] = compound: CN1CCC(CNc2ccc3ncc(-c4cccc(OC(F)(F)F)c4)n3n2)CC1 [SGI-1776] + Cc1nc(Nc2ncc(C(=O)Nc3c(C)cccc3Cl)s2)cc(N2CCN(CCO)CC2)n1 [Dasatinib] (partner 0.075 µM)
Method in brief: as §1

[3] = compound: C1COCCN1C2=NC(=NC3=C2OC4=C3C=CC=N4)C5=CC(=CC=C5)NC(=O)C6=CN=C(C=C6)N + CS(=O)(=O)CCNCc1ccc(-c2ccc3ncnc(Nc4ccc(OCc5cccc(F)c5)c(Cl)c4)c3c2)o1 [Lapatinib] (partner 2 µM)
Method in brief: as §1

[4] = compound: CN1CCC(CNc2ccc3ncc(-c4cccc(OC(F)(F)F)c4)n3n2)CC1 [SGI-1776] + CS(=O)(=O)CCNCc1ccc(-c2ccc3ncnc(Nc4ccc(OCc5cccc(F)c5)c(Cl)c4)c3c2)o1 [Lapatinib] (partner 2 µM)
Method in brief: as §1

| Cell Line | relative viability ([1]; first compound 0.08 µM) | relative viability ([1]; first compound 0.8 µM) | relative viability ([1]; first compound 2.53 µM) | relative viability ([1]; first compound 8 µM) | relative viability ([2]; first compound 0.08 µM) | relative viability ([2]; first compound 0.8 µM) | relative viability ([2]; first compound 2.53 µM) | relative viability ([2]; first compound 8 µM) | relative viability ([3]; first compound 0.02 µM) | relative viability ([3]; first compound 0.06325 µM) | relative viability ([3]; first compound 0.2 µM) | relative viability ([3]; first compound 0.6325 µM) | relative viability ([3]; first compound 2 µM) | relative viability ([4]; first compound 0.08 µM) | relative viability ([4]; first compound 0.8 µM) | relative viability ([4]; first compound 2.53 µM) | relative viability ([4]; first compound 8 µM) |
| --- | --- | --- | --- | --- | --- | --- | --- | --- | --- | --- | --- | --- | --- | --- | --- | --- | --- |
| SW 900 | 0.855 | 0.76 | 0.653 | 0.724 | 0.542 | 0.387 | 0.56 | 0.301 | – | – | – | – | – | – | – | – | – |
| NCI-H1944 | 0.389 | 0.408 | 0.426 | 0.378 | 0.223 | 0.2 | 0.223 | 0.173 | 0.802 | 0.864 | 0.753 | 0.876 | 0.859 | 0.81 | 0.727 | 0.915 | 0.601 |
| NCI-H838 | 0.519 | 0.534 | 0.414 | 0.385 | 0.282 | 0.275 | 0.256 | 0.257 | 0.725 | 1.06 | 0.895 | 0.705 | 0.53 | 0.96 | 1.22 | 0.942 | 0.564 |
| NCI-H1651 | 0.806 | 0.852 | 0.843 | 0.746 | 0.535 | 0.378 | 0.381 | 0.312 | 0.975 | 0.839 | 0.786 | 0.84 | 0.614 | 0.822 | 0.871 | 0.76 | 0.709 |
| HCC-827 | 0.578 | 0.534 | 0.578 | 0.464 | 0.352 | 0.33 | 0.255 | 0.227 | 0.172 | 0.214 | 0.254 | 0.186 | 0.21 | 0.168 | 0.201 | 0.16 | 0.194 |
| HCC-366 | 0.344 | 0.368 | 0.289 | 0.19 | 0.595 | 0.669 | 0.517 | 0.524 | 1.35 | 1.04 | 0.95 | 1.03 | 0.453 | 1.12 | 0.95 | 0.992 | 0.837 |
| HARA | 0.652 | 0.74 | 0.604 | 0.732 | 0.31 | 0.178 | 0.207 | 0.289 | 0.749 | 0.699 | 0.803 | 0.707 | 0.502 | 0.886 | 0.856 | 0.617 | 0.586 |
| NCI-H441 | 0.497 | 0.51 | 0.5 | 0.294 | 0.633 | 0.625 | 0.539 | 0.55 | – | – | – | – | – | – | – | – | – |
| NCI-H1299 | – | – | – | – | – | – | – | – | 0.929 | 0.953 | 0.954 | 0.975 | 0.691 | 1.02 | 0.991 | 0.99 | 0.95 |
| RERF-LC-KJ | 0.917 | 0.843 | 0.722 | 0.707 | 0.803 | 0.688 | 0.7 | 0.447 | 0.976 | 0.922 | 0.844 | 0.769 | 0.65 | 0.867 | 0.868 | 0.728 | 0.795 |
| CAL-12T | 0.433 | 0.399 | 0.33 | 0.288 | 0.633 | 0.351 | 0.348 | 0.246 | 0.663 | 0.701 | 0.632 | 0.604 | 0.472 | 0.635 | 0.61 | 0.871 | 0.598 |
